The test system of data set [1] is Rat Brain A1 and A2-Receptors. The note with it: cited from earlier work; for A1/A2 ratio: rat brain, reference 31; for A1/A2 ratio, value in square brackets: second value printed in brackets below, brackets not explained.
The subject of data set [2] is isolated cardiac myocytes. Nature of the data set: Apoptotic cell death by DNA laddering on 1.5% agarose gel. The note with it: no ischemia; agents that increase intracellular calcium. Format: cell-based. Here is the method: Such smearing is indicative of a culmination of the apoptotic cell death pathway. Isolated cardiac myocytes were exposed to 90-min ischemia and 30-min reoxygenation (lanes 4 and 5). […] Lanes 1 and 2 represent myocytes not exposed to ischemia or any agent. Data were representative of three experiments.
Isolated cardiac myocytes were exposed to prolonged moderate simulated ischemia (17 hours with 2-3% O2). Lane 3 represents myocytes not exposed to ischemia or any agent. Lane 5 represents myocytes exposed to 17 hours of ischemia. […] Data were representative of three experiments.
Lane 3 represents myocytes not exposed to any agent. Lane 5 represents cardiac myocytes exposed (for three hours) to an agent (a P2X receptor agonist, 2-methylthioATP) known to increase intracellular calcium concentration. Prolonged exposure to 2-methylthioATP or UTP caused increased apoptosis (Lane 7). […] Data were representative of two experiments.
The effects of agents which target the adenosine receptor on apoptosis were initially examined in isolated cardiac myocytes exposed to ischemia (for 90 minutes and 30 minutes of reoxygenation) or agents which increase intracellular calcium levels. Increasing the level of intracellular calcium concentration induces non-ischemia-related apoptosis in vitro. Apoptotic cell death of cardiac myocytes was assessed by determining the extent of smearing or “DNA laddering” on 1.5% agarose gels.

For data set [3], the system named is ventricular myocytes cultured from chick embryos. Nature of the data set: Pharmacological preconditioning: 5 min exposure to agent, then 90 min simulated ischemia. Format: cell-based. The note with it: for effect of PLD inhibition on protective effect of MRS1760: ethanol (0.5%) or propranolol (100 μM) with 10 nM MRS1760. The procedure: FIG. 14 is a graph showing that the partial A1 receptor agonist, 8-butylaminoCPA, mimics the cardioprotective effect of ischemic preconditioning. Ventricular myocytes were cultured from chick embryos 14 days in ovo. The ability of the partial A1 agonist, 8-butylaminoCPA (8-butylamino-N^6-cyclopentyladenosine), to induce preconditioning was determined. In brief, myocytes were exposed to 8-butylaminoCPA at the indicated concentrations for 5 min, incubated for 10 min with agonist-free medium, and then exposed to simulated ischemia for 90 min. The extent of myocyte injury was quantitated at the end of the 90 min period by determinating the percentage of cells killed and the amount of creatine kinase (CK) released (units per milligram of cell protein). Data are means±SE of values from five independent experiments.
(§1) Determination of myocyte injury was made at the end of the ninety-minute hypoxia, at which time myocytes were taken out of the hypoxic incubator and re-exposed to room air (normal % O2). Aliquots of the media were then obtained for creatine kinase (CK) activity measurement, which is followed by quantitation of the number of viable cells. Measurement of basal level of cell injury was made after parallel incubation of control cells under normal % O2. The extent of hypoxia-induced injury to the ventricular cell was quantitatively determined by the percentages of cells killed and by the amount of CK released into the media according to a previously described method (16, 23). […] In brief, the media were replaced with a trypsin-EDTA buffer to detach the cells, which was then followed by sedimentation of the viable myocytes. Parallel changes in % cells killed and CK released (16, 23) further validated this assay for % cells killed. The amount of CK was measured as enzyme activity (unit/mg), and increases in CK activity above the control level were determined. The percentage of cells killed was calculated as the number of cells obtained from the control group (representing cells not subjected to any hypoxia or drug treatment) minus the number of cells from the treatment group divided by number of cells in control group multiplied by 100%.
Media were then replaced with fresh media, which was then followed by exposure to 90-minute simulated ischemia and the data graphed.

The test system of data set [4] is cardiac ventricular myocytes cultured from chick embryos. Nature of the data set: Hypoxia-induced myocyte injury, agent present during prolonged (90 min) hypoxia with glucose deprivation. Format: cell-based. To be noted: for cardioprotective effect when present during prolonged hypoxia (CK released, % myocytes killed): agonist present during prolonged hypoxia/simulated ischemia; for effect of antagonist on A1 agonist (CCPA, CHA, ADAC)-induced cardioprotection: antagonist with A1 agonist during prolonged hypoxia; for effect of antagonist on A3 agonist (IB-MECA, Cl-IB-MECA)-induced cardioprotection: antagonist with A3 agonist during prolonged hypoxia. The procedure:
Ventricular cells were cultured from chick embryos 14 days in ovo as previously described (16, 23). Cells were cultivated in a humidified 5% CO2-95% air mixture at 37° C. […] The medium was changed to a HEPES-buffered medium containing (mM) 139 NaCl, 4.7 KCl, 0.5 MgCl2, 0.9 CaCl2, 5 HEPES (N-2-hydroxyethylpiperazine-N′-2-ethanesulfonic acid) and 2% fetal bovine serum, pH 7.4, 37° C. before exposing the myocytes to the various conditions at 37° C. Control myocytes were maintained in the HEPES-buffered media under room air. Ninety-minute exposure of the myocytes to hypoxia with glucose deprivation was used to induce cell injury. Hypoxia was produced by placing the cells in a hypoxic incubator (NuAire) where O2 was replaced by N2 as previously described (16,23). Effects of adenosine receptor agonists and antagonists on the extent of myocyte injury were determined by exposure of the prepared cells to these agents during the prolonged hypoxia.
as §1

[5] abbreviates: 8-SPT alone present during the hypoxia.
The mark [6] stands for this setting: in the presence of adenosine and 8-SPT (100 μM) during hypoxia.

Consider `COc1ccc(C=Cc2nc3c(c(=O)n(C)c(=O)n3C)n2C)cc1` [29b], for which the A1/A2 ratio in data set [1] is recorded as 44. `O=c1ccn([C@@H]2O[C@H](COP(=O)(O)OP(=O)(O)OP(=O)(O)O)[C@@H](O)[C@H]2O)c(=O)[nH]1` [UTP]: the “apoptotic cell death caused by prolonged exposure to the agent” value in data set [2] was “caused an increase in apoptotic cell death”. Regarding `CCCn1c(=O)c2c(nc(C=Cc3cc(OC)cc(OC)c3)n2C)n(CCC)c1=O` [53b], the A1/A2 ratio in data set [1] was 110. On to `CCO` [ethanol], for which the “effect of PLD inhibition on protective effect of MRS1760” value in data set [3] was “abolished the protective effect of MRS1760”.

For the compound `COc1cc(C=Cc2nc3c(c(=O)n(C)c(=O)n3C)n2C)cc(OC)c1OC` [44b], in data set [1], the A1/A2 ratio is reported as 70 and the “A1/A2 ratio, value in square brackets” value was “[>5600]”. For the compound `Cn1c(=O)c2c(nc(C=Cc3cccc(N(C(=O)OC(C)(C)C)C(=O)OC(C)(C)C)c3)n2C)n(C)c1=O` [compound 26], the A1/A2 ratio in data set [1] is 15.

As to `COc1cc(C=Cc2nc3c(c(=O)n(C)c(=O)n3C)n2C)cc(OC)c1` [33b], the A1/A2 ratio in data set [1] is on record as over 200.

For the compound `COc1cc(C=Cc2nc3c(c(=O)n(C)c(=O)n3C)n2C)cc(OC)c1OCC=CCN` [compound 40], in data set [1], the A1/A2 ratio was 28. As to `COc1cc(C=Cc2nc3c(c(=O)n(C)c(=O)n3C)n2C)cc(OC)c1OCC=CCNC(=O)OC(C)(C)C` [compound 42], in data set [1], the A1/A2 ratio is over 40. Take `OC[C@H]1O[C@@H](n2cnc3c(NC4CCCCC4)ncnc32)[C@H](O)[C@@H]1O` [CHA, N^6-cyclohexyladenosine]: the “cardioprotective effect when present during prolonged hypoxia (CK released, % myocytes killed)” value in data set [4] is “able to protect the myocytes when present during the prolonged hypoxia”. As for `CNC(=O)[C@H]1O[C@@H](n2cnc3c(NCc4cccc(I)c4)ncnc32)[C@H](O)[C@@H]1O` [IB-MECA, N6-(3-iodobenzyl)adenosine-5′-N-methyluronamide], the “cardioprotective effect when present during prolonged hypoxia (CK released, % myocytes killed)” value in data set [4] is given as “capable of protecting the cardiac myocytes against hypoxia-induced injury”. Turning to `COc1ccc2c(c1)CC[C@@H]1[C@@H]2CC[C@]2(C)[C@@H](NCCCCCCN3C(=O)C=CC3=O)CC[C@@H]12` [U-73122], the “effect of PLC inhibitor on protective response to 8-butylaminoCPA” value in data set [3] (U-73122 (10 μM) with 1 μM 8-butylaminoCPA) is given as “able to block the protective response to 8-butylaminoCPA”.

With `Cn1c(=O)c2c(nc(C=Cc3cccc(N)c3)n2C)n(C)c1=O` [22b], in data set [1], the A1/A2 ratio was 30. Turning to `CC(=O)Nc1cccc(C=Cc2nc3c(c(=O)n(C)c(=O)n3C)n2C)c1` [compound 23], in data set [1], the A1/A2 ratio is listed as 240. Regarding `COc1cc(C=Cc2nc3c(c(=O)n(C)c(=O)n3C)n2C)cc(OC)c1OCCCCNC(=O)OC(C)(C)C` [compound 39], in data set [1], the A1/A2 ratio was 42. Regarding `COc1cc(C=Cc2nc3c(c(=O)n(C)c(=O)n3C)n2C)cc(OC)c1OC(C)=O` [compound 36], in data set [1], the A1/A2 ratio is 93. For `Cn1c(=O)c2[nH]c(-c3ccc(S(=O)(=O)O)cc3)nc2n(C)c1=O` [8-SPT, 8-sulfophenyl-theophylline], in data set [4] (setting [5]), the “% cells killed” value came to 31.6±1.5% and the CK released was determined as 29.6±1.2 unit/mg. Turning to `COc1cccc(C=Cc2nc3c(c(=O)n(C)c(=O)n3C)n2C)c1` [19b], in data set [1], the A1/A2 ratio is on record as 64. As to `C=CCn1c(=O)c2c(nc(C=Cc3cc(OC)c(OC)c(OC)c3)n2C)n(CC=C)c1=O` [compound 46], in data set [1], the A1/A2 ratio is on record as 13 and the “A1/A2 ratio, value in square brackets” value was “[>6700]”. Consider `Cn1c(=O)c2c(nc(C=Cc3cccc(NC(=O)OC(C)(C)C)c3)n2C)n(C)c1=O` [compound 25], for which, in data set [1], the A1/A2 ratio is given as 30. For the compound `Cn1c(=O)c2c(nc(C=Cc3cc(F)cc(F)c3)n2C)n(C)c1=O` [34b], in data set [1], the A1/A2 ratio is on record as 230. For `CCOC(=O)C1=C(C)NC(c2ccccc2)=C(C(=O)OCC)C1/C=C/c1ccccc1` (stereo not shown) [MRS 1097, 3,5-Diethyl 2-methyl-6-phenyl-4-[2-phenyl-(E)-vinyl]-1,4-(1)-dihydropyridine-3,5-dicarboxylate], in data set [4], the “effect of antagonist on A1 agonist (CCPA, CHA, ADAC)-induced cardioprotection” value is “neither MRS 1191 nor MRS 1097 was able to block the CCPA-induced cardioprotection” and the “effect of antagonist on A3 agonist (IB-MECA, Cl-IB-MECA)-induced cardioprotection” value is listed as “able to block the cardioprotective effect of Cl-IB-MECA”. As for `Cn1c(=O)c2c(nc(C=Cc3cccc(F)c3)n2C)n(C)c1=O` [27b], the A1/A2 ratio in data set [1] is listed as 190. Turning to `COc1cc(C=Cc2nc3c(c(=O)n(C)c(=O)n3C)n2C)cc(OC)c1OCC=CCNC(C)=O` [compound 41], in data set [1], the A1/A2 ratio is recorded as over 50. Take `COc1ccc(C=Cc2nc3c(c(=O)n(C)c(=O)n3C)n2C)cc1OC` [32b]: the A1/A2 ratio in data set [1] is listed as 70.

Consider `CC(C)NCC(O)COc1cccc2ccccc12` (stereo not shown) [Propranolol], for which, in data set [3], the “effect of PLD inhibition on protective effect of MRS1760” value is recorded as “also abolished the protective effect of MRS1760”. `COc1cc(C=Cc2nc3c(c(=O)n(C)c(=O)n3C)n2C)cc(OC)c1OCCCCN` [compound 38]: in data set [1], the A1/A2 ratio is reported as 36.

As to `COc1ccccc1C=Cc1nc2c(c(=O)n(C)c(=O)n2C)n1C` [17b], in data set [1], the A1/A2 ratio was 18.

Consider `Cn1c(=O)c2c(nc(C=Cc3cccc([N+](=O)[O-])c3)n2C)n(C)c1=O` [21b], for which, in data set [1], the A1/A2 ratio is recorded as 11.

As for `Cn1c(=O)c2c(nc(C=Cc3cccc(NC(=O)CCC(=O)O)c3)n2C)n(C)c1=O` [compound 24], the A1/A2 ratio in data set [1] is listed as 250.

Consider `CCCn1c(=O)c2[nH]c(C3CCCC3)nc2n(CCC)c1=O` [DPCPX, 8-cyclopentyl-1,3-dipropylxanthine], for which, in data set [4], the “effect of antagonist on A1 agonist (CCPA, CHA, ADAC)-induced cardioprotection” value is recorded as “blocked by the A1 antagonist DPCPX” and the “effect of antagonist on A3 agonist (IB-MECA, Cl-IB-MECA)-induced cardioprotection” value is reported as “had no effect on the ability of IB-MECA or Cl-IB-MECA to mediate their cardioprotective effects”. With `Cn1c(=O)c2c(nc(/C=C/c3cccc(C(F)(F)F)c3)n2C)n(C)c1=O` [20b], the A1/A2 ratio in data set [1] was 25. Take `Nc1ncnc2c1ncn2[C@@H]1O[C@H](CO)[C@@H](O)[C@H]1O` [Adenosine]: the CK released is 14.9±3 unit/mg in data set [4] (adenosine 10 μM added during ninety-minute hypoxia, hypoxia alone 28.5±1.5) and 31±5 unit/mg in data set [4] (setting [6]). In addition, the “% cells killed” value in data set [4] (adenosine 10 μM added during ninety-minute hypoxia, hypoxia alone 30±2) came out at 12±2%; in data set [4] (setting [6]), 28±3%. As for `CNC(=O)C1OC(n2cnc3c(NCc4cccc(S(=O)(=O)O)c4)ncnc32)C(O)C1O` (stereo not shown) [MRS 1340], the “creatine kinase released during prolonged simulated ischemia” value in data set [4] (increasing concentrations, presence and absence of DPCPX (FIGS. 3A-3D)) is listed as “cardioprotective effects”.

Turning to `COc1cc(C=Cc2nc3c([nH]2)c(=O)n(C)c(=O)n3C)cc(OC)c1` [33a], the A1/A2 ratio in data set [1] is 25.

As to `COc1cc(C=Cc2nc3c(c(=O)n(C)c(=O)n3C)n2C)cc(OC)c1O` [compound 35], the A1/A2 ratio in data set [1] is 19.

For `OC[C@@]12C[C@@H]1[C@@H](n1cnc3c(NCc4cccc(I)c4)ncnc31)[C@H](O)[C@@H]2O` [MRS1743], the “preconditioning / cardioprotective effect” value in data set [3] (agent alone, 5 min exposure before 90 min ischemia) is recorded as “exerting a potent preconditioning-like effect”.

Regarding `COc1ccc(C=Cc2nc3c(c(=O)n(C)c(=O)n3C)n2C)c(OC)c1OC` [43b], the A1/A2 ratio in data set [1] is 34.
